Measurements as given in PubChem BioAssay (NCI).
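Dose response: 5 concentrations. Exposure: 48 h. Format: 96-well plates. Endpoint: linear interpolation; highest concentration if not reached. TGI is the concentration that stops growth completely.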

Assays:
Assay in all cases: DTP human tumour cell line panel, 48 h
IGROV1 ovarian = tested on: IGROV1 ovarian
MOLT-4 leukemia = tested on: MOLT-4 leukemia
NCI-H522 lung = tested on: NCI-H522 lung
PC-3 prostate = tested on: PC-3 prostate
SW-620 colon = tested on: SW-620 colon
TK-10 renal = tested on: TK-10 renal
KM12 colon = tested on: KM12 colon
UACC-62 melanoma = tested on: UACC-62 melanoma
UO-31 renal = tested on: UO-31 renal
BT-549 breast = tested on: BT-549 breast

Compound	TGI (IGROV1 ovarian) [µM]	TGI (MOLT-4 leukemia) [µM]	TGI (NCI-H522 lung) [µM]	TGI (PC-3 prostate) [µM]	TGI (SW-620 colon) [µM]	TGI (TK-10 renal) [µM]	TGI (KM12 colon) [µM]	TGI (UACC-62 melanoma) [µM]	TGI (UO-31 renal) [µM]	TGI (BT-549 breast) [µM]
CCOC(=O)/C(=C/c1cn(C(C)=O)c2ccccc12)P(=O)(OC)OC	> 100	74.6	79.3	> 100	> 100	> 100	–	–	–	–
CN(C)CCCNC(=O)N/N=C/c1ccccn1	> 10	> 10	> 10	> 10	> 10	> 10	> 10	> 10	> 10	–
COc1ccc(C=C2C(C)=NN(c3cccc(Cl)c3)C23C(Cl)C(=O)N3c2nc3ccccc3s2)cc1 (centres undefined)	40.1	68	22	39.3	20.7	> 100	34.8	–	33.4	–
CCOC(=O)CC1C(C(=O)OCC)=Cn2c([nH]c3cccc4cccc2c43)=C1C(=O)OCC (centres undefined)	> 100	> 100	–	> 100	> 100	> 100	> 100	> 100	> 100	> 100
Cc1cc(C)c(C2=NO[C@@H]3[C@H]2C(=O)C=C2N(Cc4ccccc4)CCO[C@@]23O)c(C)c1	> 100	> 100	> 100	–	> 100	–	> 100	> 100	> 100	–
CC1(c2ccc(Cl)cc2)c2ccccc2C(=O)N1CCCN1C(=O)c2ccccc2C1=O (centres undefined)	70.4	> 100	–	> 100	> 100	> 100	50.8	> 100	> 100	> 100
CC(C)C(Nc1c2ccccc2[n+](C)c2ccccc12)C(=O)O (centres undefined)	> 100	> 100	> 100	–	> 100	> 100	> 100	> 100	> 100	–
CC(=O)N1CN2C(=O)CCC2c2cc(C)ccc21 (centres undefined)	> 100	> 100	> 100	> 100	> 100	> 100	> 100	> 100	> 100	–
N#CC(c1cc(Cl)ncn1)c1nc2cc(C(F)(F)F)ccc2s1 (centres undefined)	20.3	> 100	3.61	–	17.8	> 100	18.7	–	17.8	9.5
O=c1ccc(=O)c2c1c1[nH]c3ccccc3c1c1c(=O)c3ccccc3c(=O)c21	> 10	7.55	> 10	> 10	> 10	> 10	> 10	> 10	> 10	–
Cc1cc(Br)c(O)c(-c2cscn2)c1	56.7	–	–	27.7	31.5	42	–	28.2	25.4	24
O=c1[nH]c2ccccc2c(=O)n1/N=C\c1ccccc1O	> 100	> 100	–	> 100	> 100	> 100	> 100	> 100	> 100	> 100
CN(CC(=O)O)c1ncc2c(n1)-c1ccccc1CC2	> 100	> 100	> 100	> 100	> 100	> 100	> 100	> 100	> 100	–
COc1cc(CNc2nc3c(NC(C)=O)cc(C(F)(F)F)cc3nc2-c2ccccc2)cc(OC)c1OC	> 100	> 100	> 100	–	> 100	> 100	> 100	> 100	> 100	–
Nc1ncnc2c1ncn2C1C(O)C=C(CO)C1O (centres undefined)	> 625	–	–	–	> 625	–	> 625	> 625	> 625	–
C/C(=C\C(=O)O)C(=O)N(C)c1ccccc1I	–	> 100	–	> 100	> 100	–	> 100	> 100	> 100	–
CCn1c(-c2cc3ccccc3cc2OC(C)=O)n[nH]c1=S	> 100	51.3	38.8	39.2	> 100	75.6	> 100	–	> 100	–
COC(=O)c1c2c(cc3c1CC1(Cc4cc5c(cc4C1)CCCC5)C3)CCCC2	> 100	> 100	> 100	> 100	–	> 100	> 100	> 100	> 100	–
CC1OC23CCCCC2C(C#N)(C#N)C1(C#N)C(=N)O3 (centres undefined)	41.9	90.1	–	69.2	98.3	46.8	61.1	–	–	34.4
CCCCCCCCCCCCCCCC[N+](C)(C)CCl	1.31	–	–	7.96	> 100	6.41	–	6.46	27.9	7.87
COc1cc(-c2cc(OC)c(OC)c3ccc(Br)cc23)c2cc(Br)ccc2c1OC	85.3	> 100	72.1	58	> 100	52.7	–	47.7	73.7	–
